Reference: ChEMBL document CHEMBL1122941, “Design, synthesis, and pharmacological activities of 2-substituted 4-phenylquinolines as potential antidepressant drugs” (J Med Chem, 1985)

Key:
[1] = Lethal dose was evaluated against reserpine induced hypothermia in mice by intraperitoneal administration; format: toxicity, organism-based; conditions: mouse, in vivo, ip
Mus musculus = assay: Effective dose was evaluated for its antagonism to reserpine induced hypothermia in mice by intraperitoneal administration; format: functional; conditions: ip
[2] = Therapeutic index as the ratio of LD50 to that of ED50 values.

CN(C)CCCSc1cc(-c2ccccc2)c2ccccc2n1.Cl
LD50 [1]: 189 mg/kg
ED50 (Mus musculus): > 50 mg/kg

Cl.c1ccc(-c2cc(N3CCNCC3)nc3ccccc23)cc1
LD50 [1]: 152 mg/kg
therapeutic index (LD50/ED50) [2]: 12.7
ED50 (Mus musculus): 12 mg/kg

CN(C)CCCNc1cc(-c2ccccc2)c2ccccc2n1.Cl
LD50 [1]: 100 mg/kg
ED50 (Mus musculus): > 50 mg/kg

CCN(CC)Cc1cc(-c2ccccc2)c2ccccc2n1.Cl
LD50 [1]: 163 mg/kg
therapeutic index (LD50/ED50) [2]: 7.76
ED50 (Mus musculus): > 50 mg/kg

CN(C)CCCOc1cc(-c2ccccc2)c2ccccc2n1.Cl
LD50 [1]: 200 mg/kg
ED50 (Mus musculus): > 50 mg/kg

CN(C)CCNc1cc(-c2ccccc2)c2ccccc2n1.Cl
LD50 [1]: 102 mg/kg
therapeutic index (LD50/ED50) [2]: 3.92
ED50 (Mus musculus): 26 mg/kg

CN(C)CCSc1cc(-c2ccccc2)c2ccccc2n1.Cl
LD50 [1]: 198 mg/kg
therapeutic index (LD50/ED50) [2]: 4.7
ED50 (Mus musculus): 42.1 mg/kg

CN(C)CCN(C)c1cc(-c2ccccc2)c2ccccc2n1.Cl
LD50 [1]: 98 mg/kg
therapeutic index (LD50/ED50) [2]: 3.63
ED50 (Mus musculus): 27 mg/kg

CN(C)CCOc1cc(-c2ccccc2)c2ccccc2n1.Cl
LD50 [1]: 202 mg/kg
therapeutic index (LD50/ED50) [2]: 10.9
ED50 (Mus musculus): 18.5 mg/kg

Cl.O=c1n(CCCN2CCN(c3cc(-c4ccccc4)c4ccccc4n3)CC2)nc2ccccn12
LD50 [1]: 390 mg/kg
therapeutic index (LD50/ED50) [2]: 9.7
ED50 (Mus musculus): 40.2 mg/kg

Cl.ClCCCN1CCN(c2cc(-c3ccccc3)c3ccccc3n2)CC1
LD50 [1]: 385 mg/kg
therapeutic index (LD50/ED50) [2]: 21.4
ED50 (Mus musculus): 18 mg/kg

CN(C)CCCN(C)c1cc(-c2ccccc2)c2ccccc2n1.Cl
LD50 [1]: 110 mg/kg
ED50 (Mus musculus): > 50 mg/kg

CN(C)CCCN1c2ccccc2CCc2ccccc21 [IMIPRAMINE]
ED50 (Mus musculus): 21 mg/kg

c1ccc2nc(N3CCNCC3)ccc2c1 [QUIPAZINE]
LD50 [1]: 135 mg/kg
ED50 (Mus musculus): 35.4 mg/kg

O=c1n(CCCN2CCN(c3cccc(Cl)c3)CC2)nc2ccccn12 [TRAZODONE]
ED50 (Mus musculus): > 50 mg/kg
